Publication PMC12102759 (Protein Science : A Publication of the Protein Society, 2025)
Where two headings read alike, the source gives them in different places.

Tested on: PABPC1 PABC
Format: binding, human
Conditions: DMS-BM library, bait PABPC1 PABC, row aa = residue at this position; for DMS-derived PSSM value, position P4 / DMS-derived PSSM value (averaged), position P11 / DMS-derived PSSM value, position P6 / DMS-derived PSSM value, position P13 / DMS-derived PSSM value, position P11: P = wild type; for DMS-derived PSSM value, position E8 / DMS-derived PSSM value (averaged), position E8 / DMS-derived PSSM value, position E10: E = wild type
[1] = prey ATXN2, peptide KSTLNPNAKEFNPRSF, S = wild type
[2] = prey ATXN2, peptide KSTLNPNAKEFNPRSF, K = wild type
[3] = prey ATXN2, peptide TLNPNAKEFNPRSFSQ
[4] = prey ATXN2, TLNPNAKEFNPRSF(averaged) over the two overlapping peptides
[5] = prey ATXN2, peptide KSTLNPNAKEFNPRSF
[6] = prey ATXN2, TLNPNAKEFNPRSF(averaged) over the two overlapping peptides, N = wild type
[7] = prey ATXN2, peptide KSTLNPNAKEFNPRSF, T = wild type
[8] = prey ATXN2, peptide KSTLNPNAKEFNPRSF, N = wild type
[9] = prey ATXN2, peptide TLNPNAKEFNPRSFSQ, N = wild type
[10] = prey ATXN2, peptide KSTLNPNAKEFNPRSF, L = wild type
[11] = prey ATXN2, peptide KSTLNPNAKEFNPRSF, F = wild type
[12] = prey ATXN2, peptide KSTLNPNAKEFNPRSF, A = wild type
[13] = prey ATXN2, peptide KSTLNPNAKEFNPRSF, R = wild type
[14] = prey ATXN2, peptide TLNPNAKEFNPRSFSQ, S = wild type

Substance: KSTLNPNAKEFNPRSF S2I (KITLNPNAKEFNPRSF)
- DMS-derived PSSM value, position S2 [1]: 0.01393

Substance: KSTLNPNAKEFNPRSF S15V (KSTLNPNAKEFNPRVF)
- DMS-derived PSSM value, position S15 [1]: 0.09383

Substance: KSTLNPNAKEFNPRSF K9L (KSTLNPNALEFNPRSF)
- DMS-derived PSSM value, position K9 [2]: 0.07486

Substance: TLNPNAKEFNPRSFSQ P4M (TLNMNAKEFNPRSFSQ)
- DMS-derived PSSM value, position P4 [3]: 0.001164

Substance: TLNPNAKEFNPRSF(averaged) P11D (TLNPNAKEFNDRSF)
- DMS-derived PSSM value (averaged), position P11 [4]: 0.002991

Substance: TLNPNAKEFNPRSF(averaged) S13D (TLNPNAKEFNPRDF)
- DMS-derived PSSM value (averaged), position S13 (prey ATXN2, TLNPNAKEFNPRSF(averaged) over the two overlapping peptides, S = wild type): 0.02964

Substance: KSTLNPNAKEFNPRSF P6K (KSTLNKNAKEFNPRSF)
- DMS-derived PSSM value, position P6 [5]: 0

Substance: TLNPNAKEFNPRSF(averaged) N10S (TLNPNAKEFSPRSF)
- DMS-derived PSSM value (averaged), position N10 [6]: 0.02002

Substance: TLNPNAKEFNPRSFSQ E8M (TLNPNAKMFNPRSFSQ)
- DMS-derived PSSM value, position E8 [3]: 0.03925

Substance: KSTLNPNAKEFNPRSF P13S (KSTLNPNAKEFNSRSF)
- DMS-derived PSSM value, position P13 [5]: 0.02375

Substance: TLNPNAKEFNPRSFSQ L2K (TKNPNAKEFNPRSFSQ)
- DMS-derived PSSM value, position L2 (prey ATXN2, peptide TLNPNAKEFNPRSFSQ, L = wild type): 0.001564

Substance: KSTLNPNAKEFNPRSF T3R (KSRLNPNAKEFNPRSF)
- DMS-derived PSSM value, position T3 [7]: 0

Substance: KSTLNPNAKEFNPRSF N5H (KSTLHPNAKEFNPRSF)
- DMS-derived PSSM value, position N5 [8]: 0

Substance: KSTLNPNAKEFNPRSF N7F (KSTLNPFAKEFNPRSF)
- DMS-derived PSSM value, position N7 [8]: 0.07049

Substance: TLNPNAKEFNPRSFSQ N10A (TLNPNAKEFAPRSFSQ)
- DMS-derived PSSM value, position N10 [9]: 0.03895

Substance: TLNPNAKEFNPRSF(averaged) N3L (TLLPNAKEFNPRSF)
- DMS-derived PSSM value (averaged), position N3 [6]: 0

Substance: KSTLNPNAKEFNPRSF L4P (KSTPNPNAKEFNPRSF)
- DMS-derived PSSM value, position L4 [10]: 0

Substance: KSTLNPNAKEFNPRSF F16D (KSTLNPNAKEFNPRSD)
- DMS-derived PSSM value, position F16 [11]: 0.02019

Substance: KSTLNPNAKEFNPRSF S2E (KETLNPNAKEFNPRSF)
- DMS-derived PSSM value, position S2 [1]: 0.01242

Substance: TLNPNAKEFNPRSF(averaged) N5L (TLNPLAKEFNPRSF)
- DMS-derived PSSM value (averaged), position N5 [6]: 0.05209

Substance: KSTLNPNAKEFNPRSF A8H (KSTLNPNHKEFNPRSF)
- DMS-derived PSSM value, position A8 [12]: 0

Substance: TLNPNAKEFNPRSF(averaged) N10D (TLNPNAKEFDPRSF)
- DMS-derived PSSM value (averaged), position N10 [6]: 0.04905

Substance: KSTLNPNAKEFNPRSF K9E (KSTLNPNAEEFNPRSF)
- DMS-derived PSSM value, position K9 [2]: 0.0298

Substance: TLNPNAKEFNPRSF(averaged) E8G (TLNPNAKGFNPRSF)
- DMS-derived PSSM value (averaged), position E8 [4]: 0

Substance: TLNPNAKEFNPRSFSQ P11H (TLNPNAKEFNHRSFSQ)
- DMS-derived PSSM value, position P11 [3]: 0.157

Substance: TLNPNAKEFNPRSFSQ F9R (TLNPNAKERNPRSFSQ)
- DMS-derived PSSM value, position F9 (prey ATXN2, peptide TLNPNAKEFNPRSFSQ, F = wild type): 0

Substance: KSTLNPNAKEFNPRSF
- DMS-derived PSSM value, position A8 [12]: 0.5804
- DMS-derived PSSM value, position E10 [5]: 0.1617
- DMS-derived PSSM value, position F11 [11]: 0.393
- DMS-derived PSSM value, position F16 [11]: 0.06015
- DMS-derived PSSM value, position K9 [2]: 0.008078
- DMS-derived PSSM value, position L4 [10]: 0.6837
- DMS-derived PSSM value, position N5 [8]: 0.9124
- DMS-derived PSSM value, position N7 [8]: 0.02963
- DMS-derived PSSM value, position N12 [8]: 0.02408
- DMS-derived PSSM value, position P6 [5]: 0.1132
- DMS-derived PSSM value, position P13 [5]: 0.007578
- DMS-derived PSSM value, position R14 [13]: 0.01898
- DMS-derived PSSM value, position S2 [1]: 0.03631
- DMS-derived PSSM value, position S15 [1]: 0.05273
- DMS-derived PSSM value, position T3 [7]: 0.04565

Substance: TLNPNAKEFNPRSF(averaged) P11M (TLNPNAKEFNMRSF)
- DMS-derived PSSM value (averaged), position P11 [4]: 0.00553

Substance: TLNPNAKEFNPRSFSQ R12T (TLNPNAKEFNPTSFSQ)
- DMS-derived PSSM value, position R12 (prey ATXN2, peptide TLNPNAKEFNPRSFSQ, R = wild type): 0.06242

Substance: KSTLNPNAKEFNPRSF F11Y (KSTLNPNAKEYNPRSF)
- DMS-derived PSSM value, position F11 [11]: 0.3016

Substance: TLNPNAKEFNPRSFSQ N5A (TLNPAAKEFNPRSFSQ)
- DMS-derived PSSM value, position N5 [9]: 0.004479

Substance: KSTLNPNAKEFNPRSF F16N (KSTLNPNAKEFNPRSN)
- DMS-derived PSSM value, position F16 [11]: 0.04727

Substance: TLNPNAKEFNPRSF(averaged) L2E (TENPNAKEFNPRSF)
- DMS-derived PSSM value (averaged), position L2 (prey ATXN2, TLNPNAKEFNPRSF(averaged) over the two overlapping peptides, L = wild type): 0.04453

Substance: KSTLNPNAKEFNPRSF N12S (KSTLNPNAKEFSPRSF)
- DMS-derived PSSM value, position N12 [8]: 0.008786

Substance: TLNPNAKEFNPRSF(averaged) E8K (TLNPNAKKFNPRSF)
- DMS-derived PSSM value (averaged), position E8 [4]: 0.03159

Substance: TLNPNAKEFNPRSFSQ S13M (TLNPNAKEFNPRMFSQ)
- DMS-derived PSSM value, position S13 [14]: 0.008683

Substance: KSTLNPNAKEFNPRSF S2D (KDTLNPNAKEFNPRSF)
- DMS-derived PSSM value, position S2 [1]: 0.01347

Substance: KSTLNPNAKEFNPRSF L4W (KSTWNPNAKEFNPRSF)
- DMS-derived PSSM value, position L4 [10]: 0

Substance: KSTLNPNAKEFNPRSF A8Y (KSTLNPNYKEFNPRSF)
- DMS-derived PSSM value, position A8 [12]: 0

Substance: KSTLNPNAKEFNPRSF R14S (KSTLNPNAKEFNPSSF)
- DMS-derived PSSM value, position R14 [13]: 0.06387

Substance: KSTLNPNAKEFNPRSF T3W (KSWLNPNAKEFNPRSF)
- DMS-derived PSSM value, position T3 [7]: 0.01564

Substance: TLNPNAKEFNPRSFSQ E8A (TLNPNAKAFNPRSFSQ)
- DMS-derived PSSM value, position E8 [3]: 0.02248

Substance: TLNPNAKEFNPRSF(averaged) F9L (TLNPNAKELNPRSF)
- DMS-derived PSSM value (averaged), position F9 (prey ATXN2, TLNPNAKEFNPRSF(averaged) over the two overlapping peptides, F = wild type): 0

Substance: TLNPNAKEFNPRSF(averaged) K7Y (TLNPNAYEFNPRSF)
- DMS-derived PSSM value (averaged), position K7 (prey ATXN2, TLNPNAKEFNPRSF(averaged) over the two overlapping peptides, K = wild type): 0.2476

Substance: KSTLNPNAKEFNPRSF E10D (KSTLNPNAKDFNPRSF)
- DMS-derived PSSM value, position E10 [5]: 0

Substance: TLNPNAKEFNPRSFSQ T1W (WLNPNAKEFNPRSFSQ)
- DMS-derived PSSM value, position T1 (prey ATXN2, peptide TLNPNAKEFNPRSFSQ, T = wild type): 0.001527

Substance: TLNPNAKEFNPRSFSQ P11D (TLNPNAKEFNDRSFSQ)
- DMS-derived PSSM value, position P11 [3]: 0.005508

Substance: KSTLNPNAKEFNPRSF N12G (KSTLNPNAKEFGPRSF)
- DMS-derived PSSM value, position N12 [8]: 0.02172

Substance: KSTLNPNAKEFNPRSF F11P (KSTLNPNAKEPNPRSF)
- DMS-derived PSSM value, position F11 [11]: 0

Substance: TLNPNAKEFNPRSF(averaged) R12T (TLNPNAKEFNPTSF)
- DMS-derived PSSM value (averaged), position R12 (prey ATXN2, TLNPNAKEFNPRSF(averaged) over the two overlapping peptides, R = wild type): 0.1269

Substance: TLNPNAKEFNPRSFSQ A6D (TLNPNDKEFNPRSFSQ)
- DMS-derived PSSM value, position A6 (prey ATXN2, peptide TLNPNAKEFNPRSFSQ, A = wild type): 0

Substance: TLNPNAKEFNPRSFSQ N5Q (TLNPQAKEFNPRSFSQ)
- DMS-derived PSSM value, position N5 [9]: 0.004159

Substance: TLNPNAKEFNPRSFSQ E8S (TLNPNAKSFNPRSFSQ)
- DMS-derived PSSM value, position E8 [3]: 0.09805

Substance: TLNPNAKEFNPRSFSQ P4F (TLNFNAKEFNPRSFSQ)
- DMS-derived PSSM value, position P4 [3]: 0.01173

Substance: TLNPNAKEFNPRSF(averaged) E8R (TLNPNAKRFNPRSF)
- DMS-derived PSSM value (averaged), position E8 [4]: 0

Substance: TLNPNAKEFNPRSFSQ S15F (TLNPNAKEFNPRSFFQ)
- DMS-derived PSSM value, position S15 [14]: 0.01014

Substance: TLNPNAKEFNPRSF(averaged) N10M (TLNPNAKEFMPRSF)
- DMS-derived PSSM value (averaged), position N10 [6]: 0.09167

Substance: KSTLNPNAKEFNPRSF E10W (KSTLNPNAKWFNPRSF)
- DMS-derived PSSM value, position E10 [5]: 0

Substance: TLNPNAKEFNPRSFSQ P4S (TLNSNAKEFNPRSFSQ)
- DMS-derived PSSM value, position P4 [3]: 0.01574

Substance: KSTLNPNAKEFNPRSF K9A (KSTLNPNAAEFNPRSF)
- DMS-derived PSSM value, position K9 [2]: 0.002649

Substance: KSTLNPNAKEFNPRSF S2P (KPTLNPNAKEFNPRSF)
- DMS-derived PSSM value, position S2 [1]: 0.1938

Substance: TLNPNAKEFNPRSFSQ K7P (TLNPNAPEFNPRSFSQ)
- DMS-derived PSSM value, position K7 (prey ATXN2, peptide TLNPNAKEFNPRSFSQ, K = wild type): 0.006619
